The target of this assay is Glycogen synthase kinase-3 beta (Homo sapiens) (UniProt P49841). Briefly: Inhibition of human GSK3-beta assessed as remaining enzyme activity at 10 uM.
Glycogen synthase kinase-3 beta (Homo sapiens), sequence (P49841 whole entry, looked up): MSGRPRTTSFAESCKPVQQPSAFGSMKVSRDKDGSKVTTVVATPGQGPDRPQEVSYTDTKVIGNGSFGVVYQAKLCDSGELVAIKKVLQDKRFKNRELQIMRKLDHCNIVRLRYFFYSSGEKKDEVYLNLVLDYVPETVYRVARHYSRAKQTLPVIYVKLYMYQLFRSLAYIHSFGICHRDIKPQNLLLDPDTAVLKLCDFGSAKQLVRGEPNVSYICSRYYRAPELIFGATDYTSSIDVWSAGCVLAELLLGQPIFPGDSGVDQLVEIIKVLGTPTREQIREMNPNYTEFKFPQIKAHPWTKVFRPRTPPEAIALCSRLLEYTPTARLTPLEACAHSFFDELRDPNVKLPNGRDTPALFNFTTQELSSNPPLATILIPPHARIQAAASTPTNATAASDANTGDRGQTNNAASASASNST
Turning to `O=C1NC(=O)/C(=C/c2ccc(-c3cc([N+](=O)[O-])ccc3Cl)o2)S1`, the Activity came out at 8%.

Regarding `COc1ccc2c(c1)/C(=C1/SC(=S)NC1=O)C(=O)N2`, the Activity is 84%.

Regarding `CC1=NCCNC2=C1[C@H](c1ccc(F)cc1)N(c1ccccn1)C2=O`, the Activity came out at 99%.

For `O=C1NC(=S)S/C1=C\c1ccccc1OS(=O)(=O)c1ccccc1[N+](=O)[O-]`, the Activity turned out to be 14%.

As to `CCOc1cc(C=C2C(=O)NC(=S)NC2=O)cc(I)c1OC`, the Activity is 58%.

Consider `O=C1NC(=S)S/C1=C\c1ccc(O)c([N+](=O)[O-])c1`, for which the Activity was 7%.

Turning to `Cc1cc(/C=C2\SC(=S)NC2=O)c(C)n1-c1cccc([N+](=O)[O-])c1`, the Activity came to 41%.

With `CCCNc1nc2ccccn2c(=O)c1/C=C1\SC(=S)NC1=O`, the Activity came to 95%.

Consider `COc1cc(/C=C2\SC(=S)NC2=O)cc(Br)c1OCc1ccccc1C`, for which the Activity was determined as 6%.

As for `Cc1ccc(/N=C2/NC(=O)S/C2=C\c2ccccc2Cl)cc1`, the Activity is 18%.

As to `O=C1CC(C(F)(F)F)=NC(Sc2c(-c3ccccc3)c3cc([N+](=O)[O-])ccc3[nH]c2=O)=N1`, the Activity stood at 41%.

With `Cc1ccc(S(=O)(=O)n2cc(/C=C3\SC(=S)NC3=O)c3ccccc32)cc1`, the Activity worked out at 67%.

Turning to `COc1ccc(-c2ccc(/C=C3\SC(=S)NC3=O)o2)c([N+](=O)[O-])c1`, the Activity was found to be 5%.
